Measurements taken from patent US10316017B2, “COT modulators and methods of use thereof” (Gilead Sciences, Inc., priority 2015, dated 2019).

Columns and labels:
[1] = target: T1, human Cot catalytic domain (30-397 amino acids) (Homo sapiens, UniProt P41279); test: High Throughput Cot Biochemical Assay (KinEASE TR-FRET); details: Cot biochemical HTRF (KinEASE TR-FRET) assay; read-out: IC50 HTRF
T1 construct: Purified recombinant human Cot catalytic domain (30-397 amino acids) was purchased from Cama Biosciences; purchased Cama Biosciences (so in the source)
T1 sequence (P41279 30-397): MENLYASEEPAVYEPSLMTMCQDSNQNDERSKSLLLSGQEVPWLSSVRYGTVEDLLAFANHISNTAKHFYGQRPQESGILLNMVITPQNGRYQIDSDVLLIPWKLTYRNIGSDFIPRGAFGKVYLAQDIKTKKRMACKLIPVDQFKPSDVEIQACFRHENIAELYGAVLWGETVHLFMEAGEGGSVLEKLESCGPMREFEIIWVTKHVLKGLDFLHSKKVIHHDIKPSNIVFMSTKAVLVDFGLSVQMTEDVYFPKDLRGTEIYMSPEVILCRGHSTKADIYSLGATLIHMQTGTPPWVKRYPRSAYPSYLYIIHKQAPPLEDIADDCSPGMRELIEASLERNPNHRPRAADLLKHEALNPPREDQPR
Summary of the method: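 First, purified human Cot (aa 30-397) at 5 nM phosphorylates an XL665-labeled STK3 peptide (1 μM) at 400 μM ATP, pH 7.0, 0.1% DMSO. Then a europium-conjugated phospho-specific antibody binds the product, giving the TR-FRET signal.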

[2] = tested on: TNFα production in LPS-stimulated human monocytes; test: Cot Monocyte TNFα Cell Based Assay; details: Homo sapiens, Monocyte, TNFα in LPS-stimulated human monocytes; read-out: EC50 TNF
Summary of the method: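 5,000 cells/well; cmpd 1 h, 37 °C, 0.5% DMSO final; LPS 50 pg/ml, 4 h, 37 °C; media TNFα by HTRF sandwich (cryptate/XL665), RT overnight; % control vs unstimulated/stimulated wells.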

Row | IC50 [1] [nM] | EC50 [2] [nM] | Compound
1 | 52 | 10600 | CC(C)(C)N1CCC(n2cc([C@@H](Nc3cc(Cl)c4ncc(C#N)c(Nc5cc(F)c(F)cc5F)c4c3)c3ccc(Cl)cc3)nn2)CC1 [Example 651, (S)-6-(((1-(1-(tert-butyl)piperidin-4-yl)-1H-1,2,3-triazol-4-yl)(4-chlorophenyl)methyl)amino)-8-chloro-4-((2,4,5-trifluorophenyl)amino)quinoline-3-carbonitrile]
2 | 61 | 7660 | CC(C)(C)N1CCC(n2cc([C@@H](Nc3cc(Cl)c4ncc(C#N)c(Nc5cc(Cl)ccc5F)c4c3)c3ccc(Cl)cc3)nn2)CC1 [Example 652, (S)-6-(((1-(1-(tert-butyl)piperidin-4-yl)-1H-1,2,3-triazol-4-yl)(4-chlorophenyl)methyl)amino)-8-chloro-4-((5-chloro-2-fluorophenyl)amino)quinoline-3-carbonitrile]
3 | 160 | 9280 | CC(C)(C)N1CCC(n2cc([C@@H](Nc3cc(Cl)c4ncc(C#N)c(Nc5c(F)cccc5F)c4c3)c3ccc(Cl)cc3)nn2)CC1 [Example 653, (S)-6-(((1-(1-(tert-butyl)piperidin-4-yl)-1H-1,2,3-triazol-4-yl)(4-chlorophenyl)methyl)amino)-8-chloro-4-((2,6-difluorophenyl)amino)quinoline-3-carbonitrile]
4 | 2040 | > 50000 | CC(C)(C)N1CCC(n2cc([C@@H](Nc3cc(Cl)c4ncc(C#N)c(Nc5ccc(OCc6ccccc6)c(Cl)c5)c4c3)c3ccc(Cl)cc3)nn2)CC1 [Example 654, (S)-4-((4-(benzyloxy)-3-chlorophenyl)amino)-6-(((1-(1-(tert-butyl)piperidin-4-yl)-1H-1,2,3-triazol-4-yl)(4-chlorophenyl)methyl)amino)-8-chloroquinoline-3-carbonitrile]
5 | 324 | 10500 | CCOc1ccc(Nc2c(C#N)cnc3c(Cl)cc(N[C@@H](c4ccc(Cl)cc4)c4cn(C5CCN(C(C)(C)C)CC5)nn4)cc23)cc1Cl [Example 655, (S)-6-(((1-(1-(tert-butyl)piperidin-4-yl)-1H-1,2,3-triazol-4-yl)(4-chlorophenyl)methyl)amino)-8-chloro-4-((3-chloro-4-ethoxyphenyl)amino)quinoline-3-carbonitrile]
6 | 39 | 1820 | C[C@@H](Nc1c(C#N)cnc2c(Cl)cc(N[C@@H](c3ccccc3)c3c[nH]nn3)cc12)c1ccccc1 [Example 656, 8-chloro-6-(((S)-phenyl(1H-1,2,3-triazol-4-yl)methyl)amino)-4-(((R)-1-phenylethyl)amino) quinoline-3-carbonitrile]
7 | 143 | 2490 | C[C@@H](Nc1c(C#N)cnc2c(Cl)cc(N[C@@H](c3ccc(Cl)cc3)c3c[nH]nn3)cc12)c1ccccc1 [Example 657, 8-chloro-6-(((S)-(4-chlorophenyl)(1H-1,2,3-triazol-4-yl)methyl)amino)-4-(((R)-1-phenylethyl)amino)quinoline-3-carbonitrile]
8 | 27 | 12200 | C[C@H](CNc1c(C#N)cnc2c(Cl)cc(N[C@@H](c3ccc(Cl)cc3)c3cn(C4CCN(C(C)(C)C)CC4)nn3)cc12)c1ccccc1 [Example 658, 6-(((S)-(1-(1-(tert-butyl)piperidin-4-yl)-1H-1,2,3-triazol-4-yl)(4-chlorophenyl)methyl)amino)-8-chloro-4-(((S)-2-phenylpropyl)amino)quinoline-3-carbonitrile]
9 | 95 | 5350 | C[C@@H](CNc1c(C#N)cnc2c(Cl)cc(N[C@@H](c3ccc(Cl)cc3)c3cn(C4CCN(C(C)(C)C)CC4)nn3)cc12)c1ccccc1 [Example 659, 6-(((S)-(1-(1-(tert-butyl)piperidin-4-yl)-1H-1,2,3-triazol-4-yl)(4-chlorophenyl)methyl)amino)-8-chloro-4-(((R)-2-phenylpropyl)amino)quinoline-3-carbonitrile]
10 | 14 | 807 | CC(C)(C)N1CCC(n2cc([C@@H](Nc3cc(Cl)c4ncc(C#N)c(Nc5cnc(F)c(F)c5)c4c3)c3ccc(Cl)cc3)nn2)CC1 [Example 660, (S)-6-(((1-(1-(tert-butyl)piperidin-4-yl)-1H-1,2,3-triazol-4-yl)(4-chlorophenyl)methyl)amino)-8-chloro-4-((5,6-difluoropyridin-3-yl)amino)quinoline-3-carbonitrile]
11 | 70 | 1270 | CC(C)(C)N1CCC(n2cc([C@@H](Nc3cc(Cl)c4ncc(C#N)c(NC5CCOCC5)c4c3)c3ccc(Cl)cc3)nn2)CC1 [Example 662, (S)-6-(((1-(1-(tert-butyl)piperidin-4-yl)-1H-1,2,3-triazol-4-yl)(4-chlorophenyl)methyl)amino)-8-chloro-4-((tetrahydro-2H-pyran-4-yl)amino)quinoline-3-carbonitrile]
12 | 72 | 4740 | CC1(Nc2c(C#N)cnc3c(Cl)cc(N[C@@H](c4ccc(Cl)cc4)c4cn(C5CCN(C(C)(C)C)CC5)nn4)cc23)CCCCC1 [Example 663, (S)-6-(((1-(1-(tert-butyl)piperidin-4-yl)-1H-1,2,3-triazol-4-yl)(4-chlorophenyl)methyl)amino)-8-chloro-4-((1-methylcyclohexyl)amino) quinoline-3-carbonitrile]
13 | 379 | 8150 | CC(C)(C)N1CCC(n2cc([C@@H](Nc3cc(Cl)c4ncc(C#N)c(Nc5cc(Cl)c(Cl)cc5F)c4c3)c3ccc(Cl)cc3)nn2)CC1 [Example 664, (S)-6-(((1-(1-(tert-butyl)piperidin-4-yl)-1H-1,2,3-triazol-4-yl)(4-chlorophenyl)methyl)amino)-8-chloro-4-((4,5-dichloro-2-fluorophenyl)amino)quinoline-3-carbonitrile]
14 | 14 | 458 | N#Cc1cnc2c(Cl)cc(N[C@@H](c3ccccc3)c3cn(CCCF)nn3)cc2c1Nc1ccc(F)c(Cl)c1 [Example 666, (S)-8-chloro-4-((3-chloro-4-fluorophenyl)amino)-6-(((1-(3-fluoropropyl)-1H-1,2,3-triazol-4-yl)(phenyl)methyl)amino) quinoline-3-carbonitrile]
15 | 28 | 887 | N#Cc1cnc2c(Cl)cc(N[C@@H](c3ccccc3)c3c[nH]nn3)cc2c1Nc1ccc(F)c(Cl)c1 [Example 667, (S)-8-chloro-4-((3-chloro-4-fluorophenyl)amino)-6-((phenyl(1H-1,2,3-triazol-4-yl)methyl)amino)quinoline-3-carbonitrile]
16 | 97 | 1610 | CC(C)(C)C(=O)OCn1cc([C@@H](Nc2cc(Cl)c3ncc(C#N)c(Nc4ccc(F)c(Cl)c4)c3c2)c2ccccc2)nn1 [Example 668, (S)-(4-(((8-chloro-4-((3-chloro-4-fluorophenyl)amino)-3-cyanoquinolin-6-yl)amino)(phenyl)methyl)-1H-1,2,3-triazol-1-yl)methyl pivalate]
17 | 39 | 1090 | N#Cc1cnc2c(Cl)cc(N[C@@H](c3ccccc3)c3cn(CC(F)F)nn3)cc2c1Nc1ccc(F)c(Cl)c1 [Example 669, (S)-8-chloro-4-((3-chloro-4-fluorophenyl)amino)-6-(((1-(2,2-difluoroethyl)-1H-1,2,3-triazol-4-yl)(phenyl)methyl)amino) quinoline-3-carbonitrile]
18 | 10 | 682 | CC(C)(C)C(=O)c1cccc([C@H](Nc2cc(Cl)c3ncc(C#N)c(Nc4ccc(F)c(Cl)c4)c3c2)c2cn(C3CCN(C(C)(C)C)CC3)nn2)c1 [Example 671, (S)-6-(((1-(1-(tert-butyl)piperidin-4-yl)-1H-1,2,3-triazol-4-yl)(3-pivaloylphenyl)methyl)amino)-8-chloro-4-((3-chloro-4-fluorophenyl)amino)quinoline-3-carbonitrile]
19 | 32 | 889 | CC(C)(C)C(O)c1cccc([C@H](Nc2cc(Cl)c3ncc(C#N)c(Nc4ccc(F)c(Cl)c4)c3c2)c2cn(C3CCN(C(C)(C)C)CC3)nn2)c1 (stereo partly drawn) [Example 672, 6-(((1S)-(1-(1-(tert-butyl)piperidin-4-yl)-1H-1,2,3-triazol-4-yl)(3-(1-hydroxy-2,2-dimethylpropyl)phenyl)methyl)amino)-8-chloro-4-((3-chloro-4-fluorophenyl)amino)quinoline-3-carbonitrile]
20 | 2 | 1550 | CC(C)(C)N1CCC(n2cc([C@@H](Nc3cc(Cl)c4ncc(C#N)c(Nc5ccc(F)c(Cl)c5)c4c3)c3cccc(C(N)=O)c3)nn2)CC1 [Example 673, (S)-3-((1-(1-(tert-butyl)piperidin-4-yl)-1H-1,2,3-triazol-4-yl)((8-chloro-4-((3-chloro-4-fluorophenyl)amino)-3-cyanoquinolin-6-yl)amino)methyl)benzamide]
21 | 3 | 318 | CCN(C)C(=O)c1cccc([C@H](Nc2cc(Cl)c3ncc(C#N)c(Nc4ccc(F)c(Cl)c4)c3c2)c2cn(C3CCN(C(C)(C)C)CC3)nn2)c1 [Example 674, (S)-3-((1-(1-(tert-butyl)piperidin-4-yl)-1H-1,2,3-triazol-4-yl)((8-chloro-4-((3-chloro-4-fluorophenyl)amino)-3-cyanoquinolin-6-yl)amino)methyl)-N-ethyl-N-methylbenzamide]
22 | 1 | 81 | CC(C)(C)N1CCC(n2cc([C@@H](Nc3cc(Cl)c4ncc(C#N)c(Nc5ccc(F)c(Cl)c5)c4c3)c3cccc(C(=O)N4CCC4)c3)nn2)CC1 [Example 675, (S)-6-(((3-(azetidine-1-carbonyl)phenyl)(1-(1-(tert-butyl)piperidin-4-yl)-1H-1,2,3-triazol-4-yl)methyl)amino)-8-chloro-4-((3-chloro-4-fluorophenyl)amino)quinoline-3-carbonitrile]
